Where no end group is shown, it is not given here. [ ]: non-standard residue; d: D form. Abu = CC[C@H](N)C(=O)O; Dhb = C/C=C(\N)C(=O)O; Dha = C=C(N)C(=O)O
Key:
[1] = binding to lipid II, agar well-diffusion after mixing with lipid II; assay type: cell-based, Micrococcus luteus; details: 10 μm peptide with 20 μm lipid II, 4°C for 1 h, indicator M. luteus 10209
Experimental: Studies have shown that lipid II was the target of nisin ([25]), and the combination of lipid II and nisin can mediate the formation of pores. Nisin and pentocin ZFM94 were mixed with lipid II, respectively. The final concentration of nisin or pentocin ZFM94 was 10 μm, while the concentration of lipid II was 20 μm. The mixture was maintained at 4°C for 1 h. The changes in the antibacterial activity were detected by the agar well-diffusion method. Micrococcus luteus 10209 was used as the indicator. Then, the size of the inhibition zone was observed.

[2] = cited from earlier work
Experimental: It retained 80.37% of its original antibacterial activity after heating at 80°C for 30 min. The antibacterial activity of pentocin ZFM94 was stable at pH 2–7. […] Pentocin ZFM94 was sensitive to trypsin and pepsin, but not to amylase, lysozyme, lipase, and ribonuclease A. Studies have reported that leuconocin S and carnocin 5 ...

## nisin (I[Dhb]AI[Dha]LC[Abu]PGCK[Abu]GALMGCNMK[Abu]A[Abu]CHCSIHV[Dha]K; thioether (positions not given here); not fully specified (residues 7, 11, 19, 26, 28, bridges); also: lantibiotic: thioether bridges and dehydrated residues, places not given here; UniProt P13068 24-57, looked up)
[1]
  antibacterial effect after mixing with lipid II: disappeared
[2]
  activity at pH close to 7: inactivated

Reference: PMC8342802, “A Novel Bacteriocin From Lactobacillus Pentosus ZFM94 and Its Antibacterial Mode of Action” (Frontiers in Nutrition, 2021)
